Assay results from PubChem BioAssay AID179 (DTP/NCI, 2004).
Activity calls are given as the source filed them.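 Rule for the calls: active = compounds giving half or more protection of infected cells from virus-caused growth loss, again on retest; inactive = the rest.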

Tested on: CEM cells HIV-1 protection, formazan growth assay
Assay: NCI AIDS Antiviral Assay
Conditions: for IC50: measured here: growth of uninfected CEM cells
Method in brief: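 Category rules: moderately active means at least 50% protection on retest, and confirmed active means 100% protection reproducibly. The underlying data came from a formazan growth assay in HIV-1-infected CEM cells.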

Row | SMILES | EC50 [µM] | IC50 [µM] | outcome
1 | C=CCN1C2Cc3cc(OC)c(OC)cc3C1Cc1cc(OC)c(OC)cc12 | > 603 | 135 | –
2 | CN1C2CCC1C(C(=O)O)C(O)C2 (configuration not stated) | > 200 | > 200 | –
3 | COC1OC2COC(c3ccccc3)OC2C(S)C1S (configuration not stated) | > 200 | 102 | –
4 | Cc1cccc(C)c1N/C(=N\Nc1c([N+](=O)[O-])cccc1[N+](=O)[O-])NC(=O)c1ccccc1C(=O)N/C(=N/Nc1c([N+](=O)[O-])cccc1[N+](=O)[O-])Nc1c(C)cccc1C | > 200 | 69.2 | –
5 | CC1(C)/C(=N\O)C2(C#N)CCC1C2 (configuration not stated) | > 200 | 166 | –
6 | CCCCN(CCCC)CCCCCCCN1CCCc2cc(OC)ccc21 | > 200 | 17.8 | –
7 | COc1ccccc1C(=O)N(Cc1ccccc1)c1ccc(Cl)c(C(=O)OC(C)C)c1 | > 19.5 | 15.5 | –
8 | O=c1[nH]c(=O)n(C2OC(CO)C(O)C(F)C2O)cc1F (configuration not stated) | 186 | > 200 | –
9 | Cc1nc2c(c(=O)[nH]1)OCN(C)C2 | > 200 | 148 | –
10 | O=c1ccc2ccccc2n1Cc1ccc2ccccc2n1 | > 200 | 148 | –
11 | O=c1oc2ccccc2c(O)c1C(c1ccc2c(c1)OCO2)c1c(O)c2ccccc2oc1=O | > 200 | 75.9 | –
12 | Cc1ccc(S)c(C(O)(C(F)(F)F)C(F)(F)F)c1 | > 200 | 12 | –
13 | CN(C)C(=N/O)/C(=N\O)N(C)C | – | – | inactive
14 | Cc1nc(Cl)c(Cl)c(Cl)n1 | – | – | inactive
15 | c1ccc2c3ccn4ccc5c6ccccc6[nH]c5c4c-3nc2c1 | > 10 | 0.513 | –
16 | O=C1OC(=O)C23CSCC12C1C=CC3O1 (configuration not stated) | > 417 | > 417 | –
17 | CC(=O)C(CCC#N)(CCC#N)CCC#N | > 200 | > 200 | –
18 | COc1cc(/C=C/C(=O)CC(=O)/C=C/c2cc(OC)c(O)c(OC)c2)cc(OC)c1O | > 200 | 12.6 | –
19 | Nc1ccn(C2OC(COP(=O)(O)O)C(O)OC2O)c(=O)n1 (configuration not stated) | – | – | inactive
20 | CN1c2ccccc2Sc2c1n[nH]c2-c1ccccc1 | > 49 | 20.9 | –
21 | CC(C)=NNC(=O)CC(=O)N(C(=O)c1ccccc1Cl)c1ccc(C)cc1 | > 468 | > 468 | –

Row | SMILES | EC50 [µM] | IC50 [µM] | outcome
22 | O=C(/C=C/c1ccc(O)cc1)c1cc(O)cc(O)c1 | > 200 | 20.9 | –
23 | CC1OC(O[C@@H]2C=C3CC[C@@H]4[C@H](CC[C@]5(C)[C@@H](c6ccc(=O)oc6)CC[C@]45O)[C@@]3(C)CC2)C(O)C(O)C1O (some centres not stated) | > 2 | 0.00468 | –
24 | CCn1c(=O)[nH]c(=O)c2conc21 | > 1380 | 661 | –
25 | O=C1CCCC2=C1CC1=C(CCCC1=O)N2c1ccc(-c2ccccc2)cc1 | – | – | inactive
26 | CC(=O)OCCCOCn1cc(C)c(=O)[nH]c1=O | > 200 | > 200 | –
27 | Cc1ccccc1NC(=O)Cc1csc(N/N=C2\NC(=O)/C(=C/c3cccc([N+](=O)[O-])c3)S2)n1 | > 200 | > 100 | –
28 | CN(CCc1ccccn1)/[N+]([O-])=N/O (tested in a mixture with another compound) | > 4680 | 3470 | –
29 | Cc1ccc(C(CCO)CCO)nc1 | > 200 | > 200 | –
30 | CC(=O)Nc1c(C#N)c2n(c1C(=O)Nc1ccc(Cl)cc1)CCC2 | > 200 | > 200 | –
31 | CCN(CC)c1ccc(C(=C2C=CC(=[N+](CC)CC)C=C2)c2ccc(S(=O)(=O)O)cc2S(=O)(=O)[O-])cc1 | – | – | inactive
32 | S=C(Cc1ccc2c(c1)Sc1ccccc1O2)N1CCOCC1 | > 200 | 27.5 | –
33 | COC1/C=C/OC2(C)Oc3c(C)c(O)c4c(O)c(c(/C=N/N(C)c5nc6c(N)ncnc6n5C5OC(CO)C(O)C5O)c(O)c4c3C2=O)NC(=O)C(C)=C/C=C/C(C)C(O)C(C)C(O)C(C)C(OC(C)=O)C1C (configuration not stated) | > 200 | 112 | –
34 | Nc1ccc(C(=O)N/C(=C\C=C\c2ccco2)c2nc3[nH]c(=S)[nH]c(=O)c3[nH]2)cc1 | – | – | inactive
35 | COC(=O)C1(C(C)C)CCc2c(OC)ccc(OC)c2C1=O (configuration not stated) | – | – | inactive
36 | CC1(C)CC(=O)C(CC2C(=O)c3ccccc3C2=O)C(=O)C1 | > 120 | > 120 | –
37 | CC1(C)OC(=C(C#N)C#N)C(C#N)=C1/C=C/c1ccncc1 | > 151 | 0.813 | –
38 | CCCCCC/C=C\CCCCCCCCCc1c(O)c(OC)cc(O)c1CN(C)C | > 200 | 2.4 | –
39 | COC(=O)CCC(C)C1CCC2[C@@H]3CC[C@@H]4CC(O)CC[C@]4(C)C3CC[C@]12C (some centres not stated) | > 25.7 | > 25.7 | –
40 | COC(=O)c1cc(=O)n(-c2ccc3nn(C)nc3c2)cc1C(=O)OC | > 200 | > 200 | –
41 | C/C(Cl)=N/OC(=O)Nc1ccc(F)c([N+](=O)[O-])c1 | > 200 | 3.24 | –
42 | Cn1cc(N)cc1C(=O)Nc1ccc(S(=O)(=O)O)c2cc(S(=O)(=O)O)ccc12 | > 490 | > 490 | –
